Experimental data taken from PubChem BioAssay (NCI).
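All cell lines were grown in 96-well plates and treated with compound for 48 hours. TGI marks complete inhibition of growth.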

What was measured:
Experiment in all cases: NCI tumour cell line growth inhibition, 48 h
SK-OV-3 ovarian = system: SK-OV-3 ovarian
HT29 colon = system: HT29 colon
NCI-H226 lung = system: NCI-H226 lung
SF-539 CNS = system: SF-539 CNS
BT-549 breast = system: BT-549 breast
HL-60(TB) leukemia = system: HL-60(TB) leukemia
MALME-3M melanoma = system: MALME-3M melanoma
RPMI-8226 leukemia = system: RPMI-8226 leukemia
A498 renal = system: A498 renal
A549 NSCLC = system: A549 NSCLC
SK-MEL-2 melanoma = system: SK-MEL-2 melanoma
EKVX NSCLC = system: EKVX NSCLC
ACHN renal = system: ACHN renal
HCT-116 colon = system: HCT-116 colon
NCI-H522 lung = system: NCI-H522 lung
UO-31 renal = system: UO-31 renal
CCRF-CEM leukemia = system: CCRF-CEM leukemia
MDA-MB-231 breast = system: MDA-MB-231 breast
MDA-MB-435 = system: MDA-MB-435
NCI-H23 lung = system: NCI-H23 lung
UACC-62 melanoma = system: UACC-62 melanoma
NCI/ADR-RES ovarian = system: NCI/ADR-RES ovarian
MOLT-4 leukemia = system: MOLT-4 leukemia
OVCAR-3 ovarian = system: OVCAR-3 ovarian
OVCAR-5 ovarian = system: OVCAR-5 ovarian
TK-10 renal = system: TK-10 renal
SK-MEL-5 melanoma = system: SK-MEL-5 melanoma
K-562 leukemia = system: K-562 leukemia
HOP-92 NSCLC = system: HOP-92 NSCLC
RXF 393 renal = system: RXF 393 renal
SK-MEL-28 melanoma = system: SK-MEL-28 melanoma
NCI-H460 lung = system: NCI-H460 lung
786-0 renal = system: 786-0 renal
MCF7 breast = system: MCF7 breast
HS 578T breast = system: HS 578T breast
SF-268 CNS = system: SF-268 CNS
SNB-75 CNS = system: SNB-75 CNS
MDA-N = system: MDA-N
HCT-15 colon = system: HCT-15 colon
IGROV1 ovarian = system: IGROV1 ovarian
T-47D breast = system: T-47D breast
LOX IMVI melanoma = system: LOX IMVI melanoma
SW-620 colon = system: SW-620 colon
SNB-19 CNS = system: SNB-19 CNS
DU-145 prostate = system: DU-145 prostate
OVCAR-4 ovarian = system: OVCAR-4 ovarian
PC-3 prostate = system: PC-3 prostate
HOP-62 NSCLC = system: HOP-62 NSCLC
COLO 205 colon = system: COLO 205 colon
OVCAR-8 ovarian = system: OVCAR-8 ovarian
KM12 colon = system: KM12 colon
HCC-2998 colon = system: HCC-2998 colon
SN12C renal = system: SN12C renal
SF-295 CNS = system: SF-295 CNS
SR leukemia = system: SR leukemia
U251 CNS = system: U251 CNS
UACC-257 melanoma = system: UACC-257 melanoma
CAKI-1 renal = system: CAKI-1 renal

Measured: TGI

O=C(O)c1c(CC(Cc2ccccc2)C(=O)O)ccc2c1CCC2 (stereo not drawn)
> 100 µM: all assays above
